From article PMC5270475, “Structural Characterization and Ligand/Inhibitor Identification Provide Functional Insights into the Mycobacterium tuberculosis Cytochrome P450 CYP126A1” (The Journal of Biological Chemistry, 2016)

molecular target: T1, CYP126A1 (Mycobacterium tuberculosis, UniProt P9WPN9); assay: UV-visible absorbance titration (heme Soret shift); format: binding; conditions: read-out: Kd
T1 construct: gene cyp126
T1 sequence (P9WPN9 whole entry): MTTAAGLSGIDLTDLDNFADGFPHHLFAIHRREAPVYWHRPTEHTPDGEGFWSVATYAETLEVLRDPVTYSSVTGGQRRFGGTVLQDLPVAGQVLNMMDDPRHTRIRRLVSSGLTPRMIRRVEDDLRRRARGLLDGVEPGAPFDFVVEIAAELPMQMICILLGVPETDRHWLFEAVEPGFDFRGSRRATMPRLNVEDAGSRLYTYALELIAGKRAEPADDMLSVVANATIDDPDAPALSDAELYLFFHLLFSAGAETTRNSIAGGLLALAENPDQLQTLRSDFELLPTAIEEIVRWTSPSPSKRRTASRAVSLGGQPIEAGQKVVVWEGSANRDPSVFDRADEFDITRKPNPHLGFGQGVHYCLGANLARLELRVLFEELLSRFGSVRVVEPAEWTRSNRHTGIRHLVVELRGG

**Q.** Which Kd does the source give for `COc1ccc(-c2noc(CN(C(=O)Cc3ccc([N+](=O)[O-])cc3)C(C)C)n2)cc1` [compound 1, N-isopropyl-N-((3-(4-methoxyphenyl)-1,2,4-oxadiazol-5-yl)methyl)-2-(4-nitrophenyl)acetamide] here?
**A.** 18.3 ± 1.3 µM

**Q.** For `O=C1CCCC2Oc3c(cc(NS(=O)(=O)c4ccc([N+](=O)[O-])cc4)c4ccccc34)C12` (stereo not drawn) [compound 2, Compound 2], which Kd is on record?
**A.** 2.85 ± 0.15 µM

**Q.** Which Kd does the source give for `Cc1ccc(NC(=O)c2cccc3nc4ccccc4nc23)cc1` [compound 3, Compound 3] here?
**A.** 56.1 ± 2.2 µM

**Q.** For `O=C1CC(N2CCN(Cc3ccc4c(c3)OCO4)CC2)C(=O)N1Cc1ccc(Cl)cc1` (stereo not drawn) [compound 4, 3-(4-(benzo[d][1,3]dioxol-5-ylmethyl)piperazin-1-yl)-1-(4-chlorobenzyl)pyrrolidine-2,5-dione], which Kd is on record?
**A.** 65.2 ± 6.6 µM

**Q.** With `Cc1cccc(CSc2ncc(Cl)c(C(=O)Nc3nnc(C)s3)n2)c1` [compound 5, Compound 5] as the molecule, how does the Kd read?
**A.** 6.15 ± 0.31 µM

**Q.** With `O=C(Nc1nc2ccc(F)cc2s1)c1nc(SCc2ccccc2F)ncc1Cl` [compound 6, Compound 6] as the molecule, how does the Kd read?
**A.** 25.3 ± 0.5 µM
